These results are taken from patent publication US20050020565A1, “CCK-1 receptor modulators” (priority 2003, published 2005).

The assay concerns the target T1, CCK-1 receptor (Homo sapiens, UniProt P32238).
T1 construct: expressed in transfected cells; membranes
T1 sequence (P32238 1-428): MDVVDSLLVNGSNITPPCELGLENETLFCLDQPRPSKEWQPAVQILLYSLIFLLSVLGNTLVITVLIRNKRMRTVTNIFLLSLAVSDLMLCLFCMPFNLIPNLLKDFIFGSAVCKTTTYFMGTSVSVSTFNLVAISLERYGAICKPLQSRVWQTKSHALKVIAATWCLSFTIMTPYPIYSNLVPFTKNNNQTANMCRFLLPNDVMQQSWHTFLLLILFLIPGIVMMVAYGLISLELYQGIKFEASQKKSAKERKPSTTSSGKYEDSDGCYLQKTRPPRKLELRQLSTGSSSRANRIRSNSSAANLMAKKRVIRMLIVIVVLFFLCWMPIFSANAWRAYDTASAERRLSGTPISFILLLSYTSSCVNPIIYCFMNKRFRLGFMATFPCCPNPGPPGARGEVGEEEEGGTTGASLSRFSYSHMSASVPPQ
Nature of the assay: CCK-1 receptor radioligand binding assay ([125I]-BH-CCK-8S displacement, membranes of stably transfected CHO-K1 cells). The following applies: membranes of CHO-K1 cells stably transfected with CCK-1 receptor, 0.3 μM PD-134,308 present. On the procedure:
CHO-K1 cells that had undergone-stable transfection with the CCK-1 receptor were grown in DMEM supplemented with L-glutamine (2 mM), penicillin (50 units/mL) and streptomycin (50 μg/mL). Cells were cultured under continuous G418 selection (2 mM) and were harvested using a rubber cell scraper. CHO-K1 cells were sub-cultured a maximum of ten times before being reseeded from the original stocks.
Membranes were prepared from the stably transfected CHO-K1 cells. Frozen cell pellets (−40° C.) were thawed in 14 mL of buffer A (10 mM HEPES, 130 mM NaCl, 4.7 mM KCl, 5 mM MgCl, 1 mM EGTA and 15.4 mg/100 mL bacitracin at pH 7.2), adapted from Harper et al. (Br. J. Pharmacol. (1996) 118, pp 1717-1726). The thawed pellets were homogenized using a Polytron PT-10 (7×1 s). The homogenates were centrifuged for 5 min at 1500 rpm (600×g), and the resulting pellets were discarded. The supernatants were re-centrifuged in order to collect the receptor-membrane pellets (25 min 15,000 rpm; 39,800×g), which were re-suspended in buffer A.
All assays were conducted in 96-well plates (GF/B millipore filter plates) using buffer A, with 0.3 μM PD-134,308, for the dilutions. The CCK-2 receptor ligand was included to eliminate the contribution of this receptor subtype to the binding. For the optimal cell number determination experiments 20 pM [1251]-BH—CCK-8S (50 μL 60 pM solution) was incubated with a range of cell concentrations (2.5×105 to 12.5×10^5 cells/well) in a total volume of 150 μL. Total binding of [1251]-BH—CCK-8S was determined in the presence of 15 μL of buffer A. Non-specific binding of [1 251]-BH—CCK-8S was determined in the presence of 15 μL of 100 μM 2-naphthalenesulphonyl L-aspartyl-(2-phenethyl)amide (2-NAP: see R. A. Hull et al., Br. J. Pharmacol. (1993) 108, pp 734-740), a CCK-1 receptor selective antagonist that is structurally unrelated to the radioligand [1251]-BH—CCK-8S. The assay preparation was incubated for 1 h at 21±3° C., and then the assay was terminated upon rapid filtration of the preparation under reduced pressure. The loaded filters were washed three times using undiluted PBS (100 μL), and then the residues were transferred to 5 mL scintillation tubes. Bound radioactivity was determined using a gamma counter (count time=1 min). From these experiments a cell concentration of 1 pellet in 40 mL of buffer (2.5×10^6 cells/mL) was chosen for use in other assays (below). To validate the radioligand concentration and incubation time for the assay, saturation and kinetic binding studies were also conducted (see M. F. Morton, The Pharmacological Characterization of Cholecystokinin Receptors in the Human Gastrointestinal Tract. PhD Thesis, University of London, 2000). The affinity of novel compounds was estimated by incubating membrane preparations with 15 μL of competing ligand (0.1 pM-1 mM) for 60 min at 21±3° C. The assay was then terminated according to the procedure outlined above.
The pKi values were determined using the equation of Cheng and Prusoff (Biochem. Pharmacol. (1973) 22, pp 3099-3108): [formula]
To circumvent problems associated with computer-assisted data analysis of compounds with low affinity, the data obtained in the current study were weighted according to a method described by Morton (2000). In brief, 100% and 0% specific binding were defined independently using total binding and binding obtained in the presence of a high concentration of the reference antagonist, 2-NAP.
Compound `Cc1ccc(-n2nc(CC(C(=O)O)c3cccc(C)c3)cc2-c2ccc(N3CCCC3=O)cc2)cc1` (centres unmarked) [Example 104] showed a Ki of 39.8 nM. The compound `Cc1cccc(C(Cc2cc(-c3ccc4ccccc4c3)n(-c3cccc[n+]3[O-])n2)C(=O)O)c1` (centres unmarked) [Example 105] gave a Ki of 316 nM. This Ki is about 7.9-fold higher than that of the compound before.

`Cc1ccc(-n2nc(CC(C(=O)O)c3cccc(C)c3)cc2-c2ccc3ncccc3c2)cc1` (centres unmarked) [Example 106]: the inhibition constant Ki is 63.1 nM.

The compound `O=C(O)/C(=C\c1cc(-c2ccc(Cl)c(Cl)c2)n(-c2ccccn2)n1)c1cccc(Cl)c1` [Example 110] showed a Ki of 12.6 nM. Against the preceding compound, the Ki is about 5-fold lower.

`O=C(O)/C(=C\c1cc(-c2ccc(Cl)c(Cl)c2)n(-c2cc(Cl)ccc2Cl)n1)c1cccc(Cl)c1` [Example 111] showed a Ki of 3.98 nM. This Ki is about 3.2-fold lower than that of the compound before. Take `O=C(O)/C(=C\c1cc(-c2ccc3ccccc3c2)n(-c2cc(Cl)ccc2Cl)n1)c1cccc(Cl)c1` [Example 112]: the Ki is 3.98 nM. For `COc1ccc(-n2nc(/C=C(\C(=O)O)c3cccc(Cl)c3)cc2-c2ccc(Cl)c(Cl)c2)cc1` [Example 115], the Ki is 6.31 nM.

With `COc1ccc(-n2nc(/C=C(\C(=O)O)c3ccc(Cl)c(Cl)c3)cc2-c2ccc(Cl)c(Cl)c2)cc1` [Example 118], the inhibitory constant (Ki) was 5.01 nM. For the compound `COc1ccc(-n2nc(/C=C(\C(=O)O)c3cccc(C)c3)cc2-c2ccc(Cl)c(Cl)c2)cc1` [Example 120], the Ki was 10 nM. With `CCOc1ccc(-n2nc(/C=C(\C(=O)O)c3cccc(Cl)c3)cc2-c2ccc3c(c2)OCO3)cc1` [Example 121], the Ki was 7.94 nM. As for `O=C(O)/C(=C\c1cc(-c2ccc3c(c2)OCO3)n(-c2cc(Cl)ccc2Cl)n1)c1cccc(Cl)c1` [Example 122], the affinity corresponds to a Ki of 1.58 nM.

`O=C(O)/C(=C/c1cc(-c2ccc3c(c2)OCO3)n(-c2cc(Cl)ccc2Cl)n1)c1cccc(Cl)c1` [Example 123] gave a Ki of 251 nM. `COc1ccc(-n2nc(/C=C(/C(=O)O)c3ccc(Cl)c(Cl)c3)cc2-c2ccc(Cl)c(Cl)c2)cc1` [Example 124] had a Ki of 39.8 nM. This Ki is about 6.3-fold lower than that of the compound before. Take `COc1ccc(-n2nc(C[C@@H](c3cccc(C)c3)c3nnn[nH]3)cc2-c2ccc(Cl)c(Cl)c2)cc1` [Example 129]: the Ki is 15.8 nM. This Ki lies about 2.5-fold lower than the previous one. `COc1ccc(-n2nc(C[C@H](c3cccc(C)c3)c3nnn[nH]3)cc2-c2ccc(Cl)c(Cl)c2)cc1` [Example 131] gave a Ki of 126 nM. `Clc1cccc(C(Cc2cc(-c3ccc4c(c3)OCO4)n(-c3cc(Cl)ccc3Cl)n2)c2nnn[nH]2)c1` (centres unmarked) [Example 132] showed a Ki of 10 nM. For `Cc1ccc(-c2cc(CC(C[S+]([O-])c3ncn[nH]3)c3cccc(C)c3)nn2-c2ccc(C)cc2)cc1` (centres unmarked) [Example 136], the affinity corresponds to a Ki of 6.31 nM.

For `Cc1ccc(-c2cc(CC(CS(=O)(=O)c3ncn[nH]3)c3cccc(C)c3)nn2-c2ccc(C)cc2)cc1` (centres unmarked) [Example 137], the Ki was 10 nM. Take `COc1ccc(-n2nc(C[C@H](CS(=O)(=O)c3ncn[nH]3)c3cccc(C)c3)cc2-c2ccc(Cl)c(Cl)c2)cc1` [Example 138]: affinity was put at a Ki of 31.6 nM. In the case of `COc1ccc(-n2nc(CC(C(=O)O)c3cccc(C)c3)cc2-c2ccc(C)cc2)cc1` (centres unmarked) [Example 148], the Ki is 15.8 nM.

`COc1ccc(-n2nc(C[C@@H](C(=O)O)c3cccc4ccccc34)cc2-c2ccc(C)cc2)cc1` [Example 151] showed a Ki of 200 nM.

Take `COc1ccc(-n2nc(C[C@H](C(=O)O)c3cccc4ccccc34)cc2-c2ccc(C)cc2)cc1` [Example 152]: the Ki is 12.6 nM. In turn, `COc1ccc(-n2nc(CC(C(=O)O)c3cccc4sccc34)cc2-c2ccc(C)cc2)cc1` (centres unmarked) [Example 153] had a Ki of 15.8 nM. This Ki and that of the compound before are within 1.5-fold of each other. Take `Cc1ccc(-c2cc(CC(C(=O)O)c3cccc(C)c3)nn2-c2ccc(Cl)cc2)cc1` (centres unmarked) [Example 155]: the inhibition constant (Ki) was 10 nM. `COc1cccc(C(Cc2cc(-c3ccc(C)cc3)n(-c3ccc(Cl)cc3)n2)C(=O)O)c1` (centres unmarked) [Example 157] showed a Ki of 12.6 nM. The result for `Cc1ccc(-c2cc(CC(C(=O)O)c3cccc4ccccc34)nn2-c2ccc(C)cc2)cc1` (centres unmarked) [Example 167] reads 12.6 nM. Regarding `Cc1ccc(-c2cc(CC(C(=O)O)c3cccc(Cl)c3)nn2-c2ccc(C)cc2)cc1` (centres unmarked) [Example 168], the Ki was 7.94 nM. This Ki lies about 1.6-fold lower than the previous one. Turning to `COc1cccc(C(Cc2cc(-c3ccc(C)cc3)n(-c3ccc(C)cc3)n2)C(=O)O)c1` (centres unmarked) [Example 170], the Ki was 7.94 nM.

In turn, `COc1cccc(C(Cc2cc(-c3ccc(C)cc3)n(-c3ccc(C(F)(F)F)cc3)n2)C(=O)O)c1` (centres unmarked) [Example 177] showed a Ki of 12.6 nM. In turn, `Cc1ccc(-c2cc(CC(C(=O)O)c3cccc4ccccc34)nn2-c2ccc(Cl)c(Cl)c2)cc1` (centres unmarked) [Example 181] gave a Ki of 15.8 nM. The result for `Cc1ccc(-c2cc(CC(C(=O)O)c3cccc(Cl)c3)nn2-c2ccc(Cl)c(Cl)c2)cc1` (centres unmarked) [Example 182] reads 12.6 nM; that for `Cc1ccc(-c2cc(CC(C(=O)O)c3ccc4c(c3)OCO4)nn2-c2ccc(Cl)c(Cl)c2)cc1` (centres unmarked) [Example 189], 39.8 nM. In turn, `Cc1ccc(-c2cc(CC(C(=O)O)c3cccc4sccc34)nn2-c2ccc(Cl)c(Cl)c2)cc1` (centres unmarked) [Example 190] showed a Ki of 10 nM.

In turn, `Cc1ccc(-c2cc(CC(C(=O)O)c3cccc4ccccc34)nn2Cc2ccccc2)cc1` (centres unmarked) [Example 195] gave a Ki of 10 nM. In other words, the double-digit nanomolar range. Turning to `COc1ccc(-n2nc(CC(C(=O)O)c3cccnc3)cc2-c2ccc(Cl)cc2)cc1` (centres unmarked) [Example 208], the inhibitory constant (Ki) is 3160 nM. The compound `COc1ccc(-n2nc(CC(C(=O)O)c3cccc4ccccc34)cc2-c2ccc(Cl)c(Cl)c2)cc1` (centres unmarked) [Example 210] showed a Ki of 12.6 nM. This Ki is about 250-fold lower than that of the compound before. Compound `COc1ccc(-n2nc(CC(C(=O)O)c3cccc(OC)c3)cc2-c2ccc(Cl)c(Cl)c2)cc1` (centres unmarked) [Example 211] showed a Ki of 12.6 nM.

The compound `COc1ccc(-n2nc(CC(C(=O)O)c3cccc(Cl)c3)cc2-c2ccc3c(c2)OCO3)cc1` (centres unmarked) [Example 221] had a Ki of 15.8 nM. This Ki and that of the compound before are within 1.5-fold of each other.

`COc1ccc(-n2nc(CC(C(=O)O)c3cccc(Cl)c3)cc2-c2ccc(Oc3ccccc3)cc2)cc1` (centres unmarked) [Example 246] gave an inhibition constant Ki of 39.8 nM. Against the preceding compound, the Ki is about 2.5-fold higher. Compound `COc1ccc(-n2nc(CC(C(=O)O)c3coc4ccccc34)cc2-c2ccc(Cl)c(Cl)c2)cc1` (centres unmarked) [Example 261] had an inhibition constant (Ki) of 12.6 nM. With `COc1ccc(-n2nc(CC(C(=O)O)c3coc4ccccc34)cc2-c2ccc3c(c2)OCO3)cc1` (centres unmarked) [Example 262], the Ki is 12.6 nM. With `Cc1ccc(-n2nc(CC(C(=O)O)c3cccc(C)c3)cc2-c2ccc3ccccc3c2)cc1` (centres unmarked) [Example 271], affinity was put at a Ki of 15.8 nM.

`Cc1cccc(C(Cc2cc(-c3ccc(Cl)c(Cl)c3)n(-c3ccc(C(C)(C)C)cc3)n2)C(=O)O)c1` (centres unmarked) [Example 275] had a Ki of 20 nM. As for `Cc1cccc(C(Cc2cc(-c3ccc4c(c3)OCO4)n(-c3ccc(Cl)cc3Cl)n2)C(=O)O)c1` (centres unmarked) [Example 276], the Ki was 6.31 nM. `Cc1cccc(C(Cc2cc(-c3ccc(N(C)C)cc3)n(-c3ccc(OC(F)(F)F)cc3)n2)C(=O)O)c1` (centres unmarked) [Example 287] showed a Ki of 20 nM. The compound `Cc1cccc(C(Cc2cc(-c3cccc(Cl)c3)n(C)n2)C(=O)O)c1` (centres unmarked) [Example 303] had a Ki of 1260 nM. This Ki is about 63-fold higher than that of the compound before. In the case of `Cc1cccc(C(Cc2cc(-c3ccc(Oc4ccccc4)cc3)[nH]n2)C(=O)O)c1` (centres unmarked) [Example 305], the Ki was 2000 nM.

The Ki is the dissociation constant of the complex between target and ligand, obtained from inhibition or displacement.
